The NIST ThermoML archive (doi:10.1016/j.fluid.2010.10.028)

Assay: xn = mol fraction of the nth substance listed
Settings: Liquid, Vibrating tube method

CC(C)=O [acetone] + CCCCCCC
Settings	mass density [kg/m3]
337.69 K, 970 kPa, x1 = 0.801	700.39
337.69 K, 4850 kPa, x1 = 0.801	706.05
337.69 K, 9830 kPa, x1 = 0.7024	699.81
337.69 K, 9840 kPa, x1 = 0.492	680.33
337.69 K, 9870 kPa, x1 = 0.801	712.82
337.69 K, 14820 kPa, x1 = 0.7024	705.98
337.69 K, 14860 kPa, x1 = 0.801	719.01
337.69 K, 14870 kPa, x1 = 0.492	686.47
337.69 K, 19850 kPa, x1 = 0.801	724.74
337.69 K, 19870 kPa, x1 = 0.492	692.06
337.69 K, 24790 kPa, x1 = 0.7024	717.01
337.69 K, 24840 kPa, x1 = 0.492	697.27
337.69 K, 24840 kPa, x1 = 0.801	730.15
337.69 K, 29870 kPa, x1 = 0.492	702.18
337.69 K, 39870 kPa, x1 = 0.7024	731.35
337.69 K, 49840 kPa, x1 = 0.801	752.9
337.69 K, 64830 kPa, x1 = 0.801	764.19
337.69 K, 84730 kPa, x1 = 0.7024	763.81
337.69 K, 89820 kPa, x1 = 0.7024	766.84
337.69 K, 94820 kPa, x1 = 0.7024	769.76
337.69 K, 99820 kPa, x1 = 0.7024	772.57
337.69 K, 104830 kPa, x1 = 0.7024	775.31
337.69 K, 109800 kPa, x1 = 0.7024	777.96
337.69 K, 114820 kPa, x1 = 0.7024	780.54
337.69 K, 119800 kPa, x1 = 0.7024	783.06
337.69 K, 124820 kPa, x1 = 0.7024	785.53
337.69 K, 129820 kPa, x1 = 0.7024	787.95
337.7 K, 930 kPa, x1 = 0.7024	687.32
337.7 K, 960 kPa, x1 = 0.492	668.07
337.7 K, 4830 kPa, x1 = 0.7024	693.05
337.7 K, 4860 kPa, x1 = 0.611	683.33
337.7 K, 4870 kPa, x1 = 0.492	673.74
337.7 K, 9860 kPa, x1 = 0.611	690.06
337.7 K, 14890 kPa, x1 = 0.611	696.23
337.7 K, 19800 kPa, x1 = 0.7024	711.67
337.7 K, 19850 kPa, x1 = 0.611	701.87
337.7 K, 24870 kPa, x1 = 0.611	707.18
337.7 K, 29860 kPa, x1 = 0.611	712.16
337.7 K, 29890 kPa, x1 = 0.7024	722.13
337.7 K, 34850 kPa, x1 = 0.492	706.79
337.7 K, 34850 kPa, x1 = 0.611	716.83
337.7 K, 34850 kPa, x1 = 0.801	739.96
337.7 K, 34880 kPa, x1 = 0.7024	726.85
337.7 K, 39850 kPa, x1 = 0.492	711.17
337.7 K, 39860 kPa, x1 = 0.611	721.28
337.7 K, 39860 kPa, x1 = 0.801	744.5
337.7 K, 44850 kPa, x1 = 0.7024	735.58
337.7 K, 44850 kPa, x1 = 0.801	748.79
337.7 K, 44860 kPa, x1 = 0.611	725.53
337.7 K, 49840 kPa, x1 = 0.7024	739.64
337.7 K, 49850 kPa, x1 = 0.611	729.53
337.7 K, 49860 kPa, x1 = 0.492	719.29
337.7 K, 54830 kPa, x1 = 0.611	733.35
337.7 K, 54830 kPa, x1 = 0.7024	743.51
337.7 K, 54850 kPa, x1 = 0.492	723.05
337.7 K, 54850 kPa, x1 = 0.801	756.81
337.7 K, 59810 kPa, x1 = 0.7024	747.21
337.7 K, 59840 kPa, x1 = 0.801	760.56
337.7 K, 59850 kPa, x1 = 0.492	726.67
337.7 K, 59940 kPa, x1 = 0.611	737.16
337.7 K, 64800 kPa, x1 = 0.7024	750.79
337.7 K, 64840 kPa, x1 = 0.492	730.12
337.7 K, 64920 kPa, x1 = 0.611	740.68
337.7 K, 69780 kPa, x1 = 0.7024	754.21
337.7 K, 69840 kPa, x1 = 0.4	783.77
337.7 K, 69840 kPa, x1 = 0.8992	783.77
337.7 K, 69910 kPa, x1 = 0.611	744.03
337.7 K, 69930 kPa, x1 = 0.801	767.73
337.7 K, 74900 kPa, x1 = 0.611	747.3
337.7 K, 74910 kPa, x1 = 0.801	771.08
337.7 K, 79880 kPa, x1 = 0.611	750.44
337.7 K, 79880 kPa, x1 = 0.801	774.31
337.7 K, 84860 kPa, x1 = 0.611	753.48
337.7 K, 84870 kPa, x1 = 0.801	777.45
337.7 K, 89840 kPa, x1 = 0.611	756.41
337.7 K, 99810 kPa, x1 = 0.801	786.3
337.7 K, 109780 kPa, x1 = 0.801	791.8
337.7 K, 114850 kPa, x1 = 0.801	794.44
337.7 K, 119850 kPa, x1 = 0.611	772.4
337.7 K, 119860 kPa, x1 = 0.801	797.03
337.71 K, 950 kPa, x1 = 0.611	677.6
337.71 K, 1150 kPa, x1 = 0.4	716.73
337.71 K, 1150 kPa, x1 = 0.8992	716.73
337.71 K, 5000 kPa, x1 = 0.4	722.27
337.71 K, 5000 kPa, x1 = 0.8992	722.27
337.71 K, 9990 kPa, x1 = 0.4	728.91
337.71 K, 9990 kPa, x1 = 0.8992	728.91
337.71 K, 14960 kPa, x1 = 0.4	735.03
337.71 K, 14960 kPa, x1 = 0.8992	735.03
337.71 K, 19960 kPa, x1 = 0.4	740.75
337.71 K, 19960 kPa, x1 = 0.8992	740.75
337.71 K, 24950 kPa, x1 = 0.4	746.11
337.71 K, 24950 kPa, x1 = 0.8992	746.11
337.71 K, 29870 kPa, x1 = 0.801	735.19
337.71 K, 29930 kPa, x1 = 0.4	751.13
337.71 K, 29930 kPa, x1 = 0.8992	751.13
337.71 K, 34930 kPa, x1 = 0.4	755.89
337.71 K, 34930 kPa, x1 = 0.8992	755.89
337.71 K, 39920 kPa, x1 = 0.4	760.43
337.71 K, 39920 kPa, x1 = 0.8992	760.43
337.71 K, 44840 kPa, x1 = 0.492	715.3
337.71 K, 49900 kPa, x1 = 0.4	768.86
337.71 K, 49900 kPa, x1 = 0.8992	768.86
337.71 K, 54890 kPa, x1 = 0.4	772.81
337.71 K, 54890 kPa, x1 = 0.8992	772.81
337.71 K, 64860 kPa, x1 = 0.4	780.28
337.71 K, 64860 kPa, x1 = 0.8992	780.28
337.71 K, 69930 kPa, x1 = 0.492	733.51
337.71 K, 74770 kPa, x1 = 0.7024	757.51
337.71 K, 74840 kPa, x1 = 0.4	787.15
337.71 K, 74840 kPa, x1 = 0.8992	787.15
337.71 K, 74910 kPa, x1 = 0.492	736.73
337.71 K, 79750 kPa, x1 = 0.7024	760.71
337.71 K, 79820 kPa, x1 = 0.4	790.43
337.71 K, 79820 kPa, x1 = 0.8992	790.43
337.71 K, 79900 kPa, x1 = 0.492	739.82
337.71 K, 84890 kPa, x1 = 0.492	742.8
337.71 K, 89860 kPa, x1 = 0.801	780.47
337.71 K, 89870 kPa, x1 = 0.492	745.68
337.71 K, 94760 kPa, x1 = 0.4	799.66
337.71 K, 94760 kPa, x1 = 0.8992	799.66
337.71 K, 94820 kPa, x1 = 0.611	759.24
337.71 K, 94840 kPa, x1 = 0.492	748.47
337.71 K, 94840 kPa, x1 = 0.801	783.46
337.71 K, 99730 kPa, x1 = 0.4	802.55
337.71 K, 99730 kPa, x1 = 0.8992	802.55
337.71 K, 99820 kPa, x1 = 0.492	751.17
337.71 K, 104700 kPa, x1 = 0.4	805.37
337.71 K, 104700 kPa, x1 = 0.8992	805.37
337.71 K, 104790 kPa, x1 = 0.611	764.72
337.71 K, 104800 kPa, x1 = 0.492	753.81
337.71 K, 104800 kPa, x1 = 0.801	789.1
337.71 K, 109680 kPa, x1 = 0.4	808.11
337.71 K, 109680 kPa, x1 = 0.8992	808.11
337.71 K, 109770 kPa, x1 = 0.492	756.37
337.71 K, 109850 kPa, x1 = 0.611	767.36
337.71 K, 114650 kPa, x1 = 0.4	810.79
337.71 K, 114650 kPa, x1 = 0.8992	810.79
337.71 K, 114850 kPa, x1 = 0.492	758.9
337.71 K, 114860 kPa, x1 = 0.611	769.89
337.71 K, 119620 kPa, x1 = 0.4	813.4
337.71 K, 119620 kPa, x1 = 0.8992	813.4
337.71 K, 119840 kPa, x1 = 0.492	761.32
337.71 K, 124840 kPa, x1 = 0.492	763.7
337.71 K, 124850 kPa, x1 = 0.801	799.52
337.71 K, 129550 kPa, x1 = 0.4	818.42
337.71 K, 129550 kPa, x1 = 0.8992	818.42
337.71 K, 129840 kPa, x1 = 0.801	801.97
337.71 K, 129850 kPa, x1 = 0.492	766
337.72 K, 44910 kPa, x1 = 0.4	764.73
337.72 K, 44910 kPa, x1 = 0.8992	764.73
337.72 K, 59870 kPa, x1 = 0.4	776.58
337.72 K, 59870 kPa, x1 = 0.8992	776.58
337.72 K, 84800 kPa, x1 = 0.4	793.6
337.72 K, 84800 kPa, x1 = 0.8992	793.6
337.72 K, 89780 kPa, x1 = 0.4	796.66
337.72 K, 89780 kPa, x1 = 0.8992	796.66
337.72 K, 99810 kPa, x1 = 0.611	762.02
337.72 K, 124590 kPa, x1 = 0.4	815.94
337.72 K, 124590 kPa, x1 = 0.8992	815.94
337.72 K, 124870 kPa, x1 = 0.611	774.78
337.72 K, 129860 kPa, x1 = 0.611	777.16
347.61 K, 960 kPa, x1 = 0.7024	676.19
347.61 K, 4840 kPa, x1 = 0.7024	682.43
347.61 K, 9820 kPa, x1 = 0.7024	689.72
347.61 K, 14820 kPa, x1 = 0.7024	696.37
347.61 K, 19810 kPa, x1 = 0.7024	702.46
347.61 K, 24790 kPa, x1 = 0.7024	708.14
347.61 K, 29890 kPa, x1 = 0.7024	713.58
347.61 K, 34890 kPa, x1 = 0.7024	718.57
347.61 K, 39880 kPa, x1 = 0.7024	723.29
347.61 K, 44870 kPa, x1 = 0.7024	727.75
347.61 K, 49860 kPa, x1 = 0.7024	731.98
347.61 K, 54840 kPa, x1 = 0.7024	736.03
347.61 K, 59830 kPa, x1 = 0.7024	739.91
347.61 K, 64820 kPa, x1 = 0.7024	743.63
347.61 K, 69810 kPa, x1 = 0.7024	747.19
347.61 K, 74800 kPa, x1 = 0.7024	750.62
347.61 K, 79780 kPa, x1 = 0.7024	753.92
347.61 K, 84760 kPa, x1 = 0.7024	757.12
347.61 K, 89750 kPa, x1 = 0.7024	760.21
347.61 K, 94730 kPa, x1 = 0.7024	763.2
